Measured values reported in PubChem BioAssay (NCI).
Where “and” joins values, the source holds several entries; their conditions need not be identical. Equal values may be shown once.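 All cell lines were grown in 96-well plates and treated with compound for 48 hours. Here, GI50 denotes the concentration required for 50% inhibition of growth. At the TGI there is no net growth.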

Test system: MDA-MB-468 breast
Assay: NCI-60 cell line screen, 48 h

Structure (SMILES) | GI50 | TGI
Cc1[nH]c(/C=C2\C(=O)Nc3ccc(F)cc32)c(C)c1C(=O)NC[C@H](O)CN1CCOCC1 | > 10000 nM | > 10 µM
Nc1nc(-c2cccc([N+](=O)[O-])c2)c(N=Nc2ccc(Br)cc2)s1 | 11100 nM | 34.2 µM
COc1ccc(-c2nc(-c3ccccc3)c(-c3ccccc3)n2C2CC2)cc1OC1CCCC1 | 66800 nM | > 165 µM
O=C(Nc1ncc(Cc2ccccc2Cl)s1)c1ccc2c(c1)OCCO2 | 462 nM | > 30.6 µM
CCN(CC)CCCCCCCNc1c2ccc(Cl)cc2nc2ccc(OC)cc12 | 1340 nM | 2.86 µM
C#C[C@]1(O)CC[C@H]2[C@@H]3CC=C4c5sc(Nc6cc(Cl)ccc6OC)nc5CC[C@]4(C)[C@H]3CC[C@@]21C | 1690 nM | 4.65 µM
Cc1ccc2c(=O)c3cccc(CC(=O)O)c3oc2c1C | > 100000 nM | > 100 µM
COC(=O)/C(=C\c1c(C)[nH]c2ccccc12)S(=O)(=O)c1ccccc1 | 6250 nM | > 100 µM
Cc1nc2cccc(NCc3ccc(C(=O)NO)cc3)c2c(=O)n1-c1ccccc1 | 1480 nM | 3.1 µM
O=C(NC(=S)Nc1ccc(Cl)cc1)c1ccccc1 | 2560 nM | > 85.3 µM
O=C1C=Cc2ccccc2/C1=C/c1[nH]c(=O)[nH]c1O | 2660 nM | 7.63 µM
O=C(NOCC1CC1)c1ccc(F)c(F)c1Nc1ccc(I)cc1Cl | 2670 nM | 8.21 µM
S=C(Nc1ccc(Cl)cc1)Nc1ccc(Cl)cc1 (tested in a mixture with another compound) | 1700 nM | 5.11 µM
CN(C)Cc1ccc(C(=O)Nc2ccc3ncnc(Nc4ccc(Oc5cccc(F)c5)c(Cl)c4)c3c2)cc1 | 1290 nM | 2.79 µM
CC1(C)N=C(N)N=C(N)N1c1cc(Cl)ccc1Cl | 28600 nM | > 100 µM
O=C(Nc1cccc(-c2nc(-c3ccc(NC(=O)c4cccs4)cc3Cl)no2)c1)Nc1ccc(NC(=O)C2CC2)c(C(F)(F)F)c1 | 181 nM | 0.394 µM

Structure (SMILES) | GI50 | TGI
O=C(Oc1ccc(CCl)cc1)c1ccccc1 | 142 nM | 0.325 µM
Cc1ccc2c(N)c(C(=O)N[C@H]3CCc4cc(N5CC6CCC(C5)N6)ccc4C3)sc2n1 | 579 nM | 2.07 µM
CCOC(=O)Oc1c(OC)cc(C(=O)O[C@@H]2C[C@@H]3CN4CCc5c([nH]c6cc(OC)ccc56)[C@H]4C[C@@H]3[C@H](C(=O)OC)[C@H]2OC)cc1OC | 8130 nM | 23.3 µM
C[C@]12CC[C@@H]3c4ccc(O)cc4CC[C@H]3[C@@H]1CC[C@@H]2NS(=O)(=O)Cc1ccc(Cl)cc1 | 3630 nM | 16.7 µM
Cc1cc2c(F)c(Oc3ncnn4cc(OC[C@@H](C)OC(=O)[C@H](C)N)c(C)c34)ccc2[nH]1 | 9230 nM | 21.8 µM
CC(NNC(=S)N1CCCCCC1)c1ccc2ccccc2n1 (centres undefined) | 603 nM | 28.1 µM
CNC(=O)c1cccc(-c2ccc3c(N4CCOC[C@@H]4C)nc(N4CCOC[C@@H]4C)nc3n2)c1 | 43.6 nM and 116 nM and 68.1 nM | 0.473 µM and 0.558 µM and 0.499 µM
C=C1C(=O)O[C@H]2[C@H]1CC/C(Cn1cc(-c3ccccc3)nn1)=C\CC[C@@]1(C)O[C@@H]21 | 953 nM | 1.97 µM
S=C(N/N=C/c1ccccn1)Nc1ccccn1 | 1280 nM | 5.76 µM
COc1ccc(-c2cn[nH]c2-c2cc(OC)c(OC)c(OC)c2)cc1N | < 10 nM and 31.4 nM | > 100 µM
O=C(Nc1ccc(Cl)cc1)c1cc2ccccc2cc1O | 1610 nM | 7.03 µM
COc1ccc(/C=C\c2cc(OC)c(OC)c(OC)c2)cc1OCC(=O)Nc1nc2ccc(C(F)(F)F)cc2s1 | 2160 nM | 6.25 µM
COc1ccc(-c2nc(-c3cn(C)c4ncccc34)cs2)cc1 | 3830 nM | > 100 µM
O=C1CCC2(C=C(Br)C(=O)C(Br)=C2)O1 | 1640 nM | 4.29 µM
COc1cc(/C=C/C(=O)c2ccc(Cl)cc2)ccc1OS(=O)(=O)c1ccc(C)cc1 | 8430 nM | 32.1 µM
N=C(N)CCCCCCCCC(=N)N | 10100 nM | > 100 µM
